Data as given in patent US9303061B2, “Spiro compounds as Hepatitis C virus inhibitors” (Sunshine Luke Pharma Co., Ltd., priority 2011, dated 2016).

Experiments:
HCV GT1b replicon cells = experiment: HCV replicon assay, GT1b replicon cells (luciferase reporter / NEO gene qPCR); type: cell-based; conditions: Hepatitis C virus, GT1B, 72 h, EC50 range against HCV 1b genotype, 72 hours incubation
Procedure: (§1) An HCV Replicon assay was utilized in the present disclosure, and was prepared, developed and validated as described in Science, 1999, 285 (5424), 110-3 and J. Virol., 2003, 77 (5), 3007-19.
(§2) HCV GT1a, GT1b and GT2a replicon cells were used to test the currently described compound series as well as wild-type cells HCV 1b and resistant cells Y93H, L31F, P32L and 1302V. GT1a, GT1b and GT2a are HCV Replicon System which is transfected HCV 1a, 1b, 2a genotype respectively. The system containing G418 resistance gene NEO and Luciferase Reporter Gene can be used to determine the level of HCV replication, and evaluate the effects of the compounds inhibiting HCV replication, by using a real-time quantitative polymerase chain reaction (qPCR) method to detect NEO, and chemiluminescence method to test Luciferase Reporter Gene.
(§3) 1. Testing EC50 of the Compounds by Luciferase Assay
(§4) The GT1a cells and GT1b cells were seeded into 96-well plates (8,000 cells in 125 μl/well) respectively; each compound was diluted to desired concentration using 5-fold serial dilutions protocol, 10 dose in duplicate, and added to wells with POD™ 810 Plate Assembler. The final concentration of DMSO was 0.5%; the plates were incubated in a CO2 incubator for 72 hours; after that, 40 μl of Luciferase assay substrate (Promega Bright-Glo) was added to each well, and detected by a chemiluminescence detection system (Topcount Microplate Scintillation and Luminescence Counter) 5 minutes later; data analysis.
(§5) 2. Testing EC50 of the Compounds by Detecting Antibiotic G418 Resistance Gene NEO Gene
(§6) The GT1a cells and GT1b cells were seeded into 96-well plates (8,000 cells in 125 μl/well) respectively; each compound was diluted to desired concentration using 5-fold serial dilutions protocol, 10 dose in duplicate, and added to wells with POD™ 810 Plate Assembler, the final concentration of DMSO was 0.5%; the cells were incubated in a CO2 incubator for 72 hours; quantitative PCR. • Sample preparation: the supernatant was removed, 100 μl of FCW buffer solution was added to each well, washed carefully and discarded the solution; 50 μl of lysate FCP was added to each well, the cells was lysed as PCR template and PCR template was diluted with DEPC water as sample template. • Quantitative PCR: preparation of reaction mixture according to PCR system; the reaction mixture was dispensed into a 384-well PCR reaction plate (specially for quantitative); and a standard template which was diluted in proportion was distributed into the plate; and the sample template was distributed into the plate; then the 384-well plate was sealed with closure plate membrane; the […] PCR machine was operated by procedures; data analysis.
(§7) 3. Data processing: EC50 values of compounds were analyzed by GRAPHPAD PRISM® software.

HCV GT1a replicon cells = experiment: HCV replicon assay, GT1a replicon cells (luciferase reporter / NEO gene qPCR); type: cell-based; conditions: Hepatitis C virus, GT1A, EC50 range against HCV 1a genotype, 72 hours incubation
Procedure: as §1, §2, §3, §4, §5, §6, §7

## COC(=O)N[C@H](C(=O)N1CCC[C@H]1c1ncc(-c2ccc(-c3ccc(-c4ccc5nc([C@@H]6CCCN6C(=O)[C@@H](NC(=O)OC)C(C)C)[nH]c5c4)c4c3C(=O)C3(CCCC3)C4)cc2)[nH]1)C(C)C [Example 36]
HCV GT1b replicon cells
  EC50: 0.001 to 0.1 nM
HCV GT1a replicon cells
  EC50: 0.001 to 0.1 nM

## CCC(=O)N[C@H](C(=O)N1CCC[C@H]1c1ncc(-c2ccc(-c3ccc(C#Cc4cnc([C@@H]5CCCN5C(=O)[C@@H](NC(=O)OC)C(C)C)[nH]4)c4c3CC3(CCCC3)C4)cc2)[nH]1)C(C)C [Example 24]
HCV GT1b replicon cells
  EC50: 0.001 to 0.1 nM
HCV GT1a replicon cells
  EC50: 0.001 to 0.1 nM

## CCC(C)[C@H](NC(=O)OC)C(=O)N1C2CC2C[C@H]1c1ncc(-c2ccc(-c3ccc(-c4cnc([C@@H]5CC6CC6N5C(=O)[C@@H](NC(=O)OC)C(C)CC)[nH]4)c4c3CC3(CCCC3)C4)cc2)[nH]1 (stereo partly drawn) [Example 43]
HCV GT1b replicon cells
  EC50: > 10 nM
HCV GT1a replicon cells
  EC50: 0.001 to 0.1 nM
